PubChem BioAssay (NCI)
Converted amounts (≈) assume the structure as drawn. “And” between values parts separate entries of the source, which are not always exact repeats. Equal values may be shown once.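 Cultured in 96-well plates, cells were exposed to test compound for 48 hours across five concentrations. The concentration for 50% growth inhibition is given as GI50. At the TGI there is no net growth.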 The source made the active and inactive calls. No stated cut-off is given here; in the data, active means GI50 below about 0.43 µM; inactive means the rest.

Tests used:
Experiment in all cases: NCI anticancer screen, dose series, 48 h
DU-145 prostate = system: DU-145 prostate
PC-3 prostate = system: PC-3 prostate
NCI/ADR-RES ovarian = system: NCI/ADR-RES ovarian
LXFL 529 NSCLC = system: LXFL 529 NSCLC
M19-MEL melanoma = system: M19-MEL melanoma
DLD-1 colon = system: DLD-1 colon
SNB-78 CNS = system: SNB-78 CNS

| SMILES | TGI (DU-145 prostate) | TGI (PC-3 prostate) | GI50 (DU-145 prostate) | GI50 (NCI/ADR-RES ovarian) | TGI (NCI/ADR-RES ovarian) | GI50 (PC-3 prostate) | outcome (LXFL 529 NSCLC) | GI50 (M19-MEL melanoma) [µg/mL] | TGI (M19-MEL melanoma) | TGI (DLD-1 colon) [µM] | TGI (LXFL 529 NSCLC) [µM] | TGI (SNB-78 CNS) [µM] |
| --- | --- | --- | --- | --- | --- | --- | --- | --- | --- | --- | --- | --- |
| Cc1cccc(Cl)c1NC(=O)/C=C/c1ccccc1 | > 100 µM | > 100 µM |  |  |  |  |  |  |  |  |  |  |
| CCN=c1cc2sc3cc(NCC)c(C)cc3nc-2cc1C | 4.16 µM | 4.72 µM | 1.97 µM | 1.77 µM | 7.31 µM | 0.133 µM |  |  |  |  |  |  |
| c1ccc2c(c1)-c1ccccc1C2N1CC2CCC(CC2)C1 | 92 µM | 72.1 µM |  |  | 39.5 µM |  |  |  |  |  |  |  |
| CN1CCCCCC(=N\O)/C(=N/O)CCCCC1 | > 100 µM | > 100 µM |  |  | > 100 µM |  |  |  |  |  |  |  |
| O=C(Nc1cc[c]([Sb](=[O])([OH])[OH])cc1)c1ccccc1 | > 100 µM | > 100 µM | > 100 µM | > 100 µM | > 100 µM | > 100 µM |  |  |  |  |  |  |
| O=C(N/N=C/c1ccccc1Cl)c1ccccc1Nc1ccnc(C(F)(F)F)c1 | > 26.5 µM | 9.6 µM | 2.5 µM | 2.16 µM | 9.32 µM | 1.83 µM |  |  |  |  |  |  |
| CC[Si](CC)(CC)OC[C@]1([C@@H]2COC(C)(C)O2)CC=CC(=O)O1 | > 100 µM | > 100 µM | 82.9 µM | 32.1 µM | > 100 µM | 41.5 µM |  |  |  |  |  |  |
| COc1c(Cl)c2c(c(OC)c1OC)-c1ccc(SC)c(=O)cc1[C@@H](NC(=O)OCC(F)(F)F)CC2 | 0.871 µM | > 72.8 µM | < 0.01 µM | 0.0182 µM |  | < 0.01 µM |  |  |  |  |  |  |
| O=c1[nH]ccc2nc(N3CCC(O)CC3)nc(Nc3cccc(C(F)(F)F)c3)c12 | 19.3 µM | 13 µM | 1.56 µM | 2.37 µM | 7.33 µM | 2.29 µM |  |  |  |  |  |  |
| Cc1cc(N2CCN(c3ccnc4cc(Cl)ccc34)CC2)nc(NC2CCCCC2)n1 | 11.2 µM | 3.02 µM | 3.51 µM | 1.91 µM | 3.97 µM | 1.47 µM |  |  |  |  |  |  |
| NC(=O)c1ccc2c(-c3ccnc(NCCCO)n3)c(-c3ccc(F)cc3)nn2c1 | > 25 µM | > 25 µM | > 22.8 µM | > 25 µM | > 25 µM | > 25 µM |  |  |  |  |  |  |
| CCOc1ccc(Nc2nc(-c3ccc4c(c3)NC(=O)CO4)cs2)cc1 | > 100 µM | 32.8 µM | 30.8 µM | 4.12 µM | > 100 µM | 3.04 µM |  |  |  |  |  |  |
| Cc1cc(I)cc(CN(C)CCN2CCCC2)c1O | > 100 µM | > 100 µM | 32.3 µM | 30.1 µM | > 100 µM | 28.2 µM |  |  |  |  |  |  |
| COc1ccc(-c2ccc(/C=N/n3c(COc4ccc(Cl)cc4Cl)nn(CN4CCN(C)CC4)c3=S)o2)c([N+](=O)[O-])c1 | > 100 µM | 76.8 µM | 17.1 µM | 18.1 µM | 45.5 µM | 17.6 µM |  |  |  |  |  |  |
| COc1ccc(-c2nc3ncccn3c2/C=C/C(=O)c2cc(OC)c(OC)c(OC)c2)cc1 | 9.48 µM | 53.2 µM | 2.55 µM | 1.56 µM | 4.86 µM | 4.32 µM |  |  |  |  |  |  |
| CC1(C)CC(n2cnc(-c3ccc(F)cc3)c2-c2ccnc(N)n2)CC(C)(C)N1 | > 25 µM | > 25 µM | > 25 µM | > 25 µM | > 25 µM | > 25 µM |  |  |  |  |  |  |
| CC1=C2C[C@H]3[C@@H](CC=C4C[C@@H](O)CC[C@@]43C)[C@@H]2CC[C@]12O[C@@H]1C[C@H](C)CN[C@H]1[C@H]2C | 50 µM and 61.6 µM | 50 µM and 59.6 µM | 27.9 µM and 25.8 µM | 38.5 µM and 20.3 µM | 50 µM and 47.5 µM | 22.1 µM and 20.2 µM |  |  |  |  |  |  |
| O=C1c2cc([N+](=O)[O-])ccc2-c2cccc(F)c21 | > 100 µM | > 100 µM |  |  | > 100 µM |  |  |  |  |  |  |  |
| NC(=N\N=C/c1cccc([N+](=O)[O-])c1)/C(N)=N\N=C/c1cccc([N+](=O)[O-])c1 | > 100 µM | > 100 µM | > 100 µM | > 100 µM | > 100 µM | > 100 µM |  |  |  |  |  |  |
| O=C(CC12CC3CC(CC(C3)C1)C2)NCCOCCOCCOCCNC(=O)c1cc2c(o1)C(=O)c1ccccc1C2=O | 1.28 µM | 16.1 µM | 0.407 µM | 2.47 µM | 7.65 µM | 1.79 µM |  |  |  |  |  |  |
| O=C1NC(=S)NC(=O)C1=Cc1cccc2cc3ccccc3cc12 | 3.63 µM | 3.3 µM |  |  | 5.89 µM |  |  |  |  |  |  |  |
| C=CCN(CC=C)C(=O)c1cc(C)nc2c1c(=O)n(-c1ccccc1)c(=O)n2CC(O)CN1CCN(c2ncccn2)CC1 (stereo not given) | > 100 µM |  | > 100 µM | > 100 µM | > 100 µM |  |  |  |  |  |  |  |

| SMILES | TGI (DU-145 prostate) | TGI (PC-3 prostate) | GI50 (DU-145 prostate) | GI50 (NCI/ADR-RES ovarian) | TGI (NCI/ADR-RES ovarian) | GI50 (PC-3 prostate) | outcome (LXFL 529 NSCLC) | GI50 (M19-MEL melanoma) [µg/mL] | TGI (M19-MEL melanoma) | TGI (DLD-1 colon) [µM] | TGI (LXFL 529 NSCLC) [µM] | TGI (SNB-78 CNS) [µM] |
| --- | --- | --- | --- | --- | --- | --- | --- | --- | --- | --- | --- | --- |
| COC(=O)C(=O)C(C(=O)C(=O)Nc1ccccc1C(C)=O)c1nc2ccc(C(=O)c3ccccc3)cc2[nH]c1=O (stereo not given) |  | > 100 µM |  |  | > 100 µM |  |  |  |  |  |  |  |
| C=C1C(=O)[C@@]23CC1C(O)[C@@H](OC(C)=O)[C@@H]2C1(C)C(OC(C)=O)C[C@@H](OC(C)=O)C(C)(C)[C@@H]1C[C@H]3OC(C)=O (stereo not given in full) | > 10 µM and 30.6 µg/mL | > 10 µM and 22.4 µg/mL | 16.9 µg/mL | 16.9 µg/mL | > 10 µM and 37.2 µg/mL | 10.6 µg/mL | inactive | 2.23 (≈ 4.17 µM) | 4.85 µg/mL |  |  |  |
| CCCN1CCN(c2ccc3nc(-c4ccc5nc(-c6cc(OC)ccc6OC)[nH]c5c4)[nH]c3c2)CC1 | 3.4 µM | 4.04 µM | 1.89 µM | 1.99 µM | 4.29 µM | 1.75 µM |  |  |  |  |  |  |
| O=P([O-])(O)OP(=O)([O-])O.[NH-][C@@H]1CCCC[C@H]1[NH-].[Pt+4] | > 100 µM | > 100 µM | 25.9 µM and 12.2 µM | 38.4 µM and 5.2 µM | > 100 µM | > 100 µM and 20.3 µM |  |  |  |  |  |  |
| COc1ccc(C2=C(c3ccc(OC)c(OC)c3)C(=O)OC2)cc1 | > 100 µM | > 100 µM | 0.185 µM | < 0.01 µM | 1.12 µM | < 0.0301 µM |  |  |  |  |  |  |
| Cc1ccc(-c2nc(N)nc3c2nnn3Cc2cccc(CO[C@H]3CCOC3)n2)o1 | > 100 µM | > 100 µM | > 100 µM | > 100 µM | > 100 µM | > 100 µM |  |  |  |  |  |  |
| C=CCN1C=CC(=O)[C@H](O[Si](C)(C)C(C)(C)C)[C@@H]1/C=C/c1ccccc1 | 30.1 µM |  | 15.7 µM | 13.3 µM | 26.8 µM |  |  |  |  |  |  |  |
| COc1cc(C(c2cc3c(cc2O)OCO3)N2CCCCC2)cc(OC)c1OC (stereo not given) | 35.6 µM | 30.6 µM |  |  | 39.2 µM |  |  |  |  |  |  |  |
| Cc1ccc(NC(=O)CCC/C(CC(=O)c2ccc(Br)cc2)=N/NC(=O)CC#N)cc1 |  |  |  |  |  |  |  |  | > 100 µM | > 100 | > 100 | > 100 |
| COC(=O)c1c2c(c(C)[n+]([O-])c1C)C(=O)C=C(NCc1ccc(OC)cc1)C2=O | 5.89 µM | 6.55 µM | 2.32 µM | 1.03 µM | 4.85 µM | 1.02 µM |  |  |  |  |  |  |
| O=C(Nc1ccc(F)cc1)C(=O)C(C1OC(=O)c2ccccc21)[N+](=O)[O-] (stereo not given) |  |  |  |  |  |  |  |  | > 100 µM | > 100 | > 100 | > 100 |
| CC1(C)CCC[C@@]2(C)C1CC[C@H]1CC(O)C3(C)CCC12C3 (stereo not given in full) |  |  |  |  |  |  |  |  | 38.2 µM | 30.9 | 31.2 | 37 |
| Nc1cc(-c2cccc(OC(F)(F)F)c2)nc2ccc(N3CCCC3)cc12 | 13.2 µM and > 100 µM and > 57.8 µM | 26.9 µM and > 100 µM | 0.0458 µM and 0.0446 µM and 0.0377 µM | 0.0362 µM and 0.0363 µM and 0.0324 µM | 20 µM and > 100 µM | 0.0455 µM and 0.0429 µM and 0.0372 µM |  |  |  |  |  |  |
| O=S(=O)(c1ccc(N=C2NN=C(c3c[nH]c4ccccc34)CS2)cc1)N1CCOCC1 | > 100 µM | > 100 µM | > 100 µM | 20.6 µM | > 100 µM | 10.3 µM |  |  |  |  |  |  |
| c1cc(OCCN2CCCCC2)ccc1CNc1ccc2nc(CCC3CCCCC3)[nH]c2c1 | 11.5 µM | 3.71 µM | 3.33 µM | 2.21 µM | 5.74 µM | 1.6 µM |  |  |  |  |  |  |
| O=CN1N=C(c2ccc(Cl)cc2)CC1c1cccc(Nc2ccnc3cc(Cl)ccc23)c1 (stereo not given) | > 100 µM | > 100 µM | 2.8 µM | 0.784 µM | > 100 µM | 1.69 µM |  |  |  |  |  |  |
| COc1cc2cc(C(=O)Nc3cc(N)c4ccccc4c3CCCl)[nH]c2c(OC)c1OC | 0.339 µM | 1.59 µM | 0.00895 µM | 0.0329 µM | 1.91 µM | 0.0252 µM |  |  |  |  |  |  |
| Cc1cc(C)nc(NS(=O)(=O)c2ccc(Nc3c4ccc(Cl)cc4nc4c(C(=O)Nc5ccc(S(=O)(=O)N=C(N)N)cc5)cccc34)cc2)n1 |  |  |  |  |  |  |  |  | > 100 µM | > 100 | > 100 | > 100 |
| CC(=O)N/C(=C\c1cccc([N+](=O)[O-])c1)c1nc2c3c(ccc2[nH]1)C(=O)c1ccccc1C3=O |  |  |  |  |  |  |  |  | > 100 µM | > 100 | > 100 | > 100 |
| Cc1cc2cc3c(C)cc(=O)oc3c(C)c2o1 | > 100 µM | > 100 µM |  |  | > 100 µM |  |  |  |  |  |  |  |
| COc1ccc2c(c1)CCc1[nH]c3ccccc3c1CCCC2 | > 10 µM | > 10 µM |  |  | > 10 µM |  |  |  |  |  |  |  |
| O=C(C[n+]1ccccc1)N=N/C(C(=O)Nc1c(Cl)c(O)c2ccccc2c1O)=C1/C(=O)Oc2cc(O)ccc2C1=O | 12.4 µM | 33 µM |  |  | 85.1 µM |  |  |  |  |  |  |  |
